In one test the test system is primary astrocytes. Description: Intracellular glycogen quantification, Example 2. It counts as cell-based, mouse. As to conditions: 10 μM, 3 h (GP-0157: 0.1, 1, 10 μM). Here is the method: Primary cultures of cerebrocortical astrocytes were obtained from 1 to 2-day-old OF1 mouse pups (Charles River). Briefly, cortices were isolated and minced in small pieces under a dissecting microscope. The cells were incubated for 30 min at 37° C. in a solution containing 20 U/ml papain, 1 mM L-cysteine and 10 kU/ml DNase I. After dissociation, papain activity was stopped by the addition of fetal calf serum (FCS). Single-cell suspension was then obtained by mechanical dissociation, which consisted in cells trituration in a DMEM D7777 medium supplemented with 44 mm NaHCO3, 10 ml/L antibiotic/antimycotic solution and 10% FCS. The cells were seeded at an average density of ˜10,000 cells/cm2 on poly-D-lysine coated 96- or 12-well culture plates, depending on their use, and grown in DMEM D7777 medium supplemented with 44 mm NaHCO3, 10 ml/L antibiotic/antimycotic solution and 10% FCS at 37° C. in a humidified atmosphere containing 5% CO2/95% air. Culture medium was renewed twice a week. Cells were stimulated and harvested between DIV14 and DIV17, when confluence and cell growth were optimal.
Astrocytes grown on 12-well plates were used for intracellular glycogen quantifications. Cells were stimulated with Vehicle (DMSO), with compounds of the invention (10 μM), or with a positive control for 180 min, at 37° C. 5% CO2/95% air in D5030 medium complemented with 5 mM D-glucose and 44 mM sodium bicarbonate (pH 7.2). […] At the end of the stimulation, medium was removed and replaced with 600 μl of 30 mM Tris HCl, and stored at −20° C.
First, the amount of proteins in each sample was quantified to assess whether harvested astrocytes from primary cell cultures yielded enough and equivalent amounts of proteins on each replicates. Proteins were quantified using the micro BCA Protein Assay kit (Thermo Scientific), according to manufacturer's instructions. Next, intracellular glycogen concentrations were quantified using a 250 μl-aliquot of the same stimulated, thawed, and sonicated cell lysate. After an incubation period of 30 min at 90° C. and 400 rpm, 28 μl of a 0.1M acetic acid/sodium acetate buffer (pH 4.6) was added to each lysate aliquots, which were then separated in two. Each split aliquots received either 5 μl of amyloglucosidase or H2O, and incubated for 120 min at 37° C. After centrifugation at 16,000 G for 5 min, 20 μl of supernatant were placed in a 96-well plate, to which 150 μl of a mix containing 0.67 mM ATP, 0.67 mM NADP, 1.8% hexokinase/glucose-6-phosphate dehydrogenase in a 0.1M Tris Buffer-HCl/3.3 mM magnesium (pH 8.1) buffer was added. Fluorescence intensity (340 nm excitation/440 nm emission) was measured using a Safire 2 spectrophotometer. Glucose concentrations were assessed relative to a glucose standard curve, and glycogen concentrations were calculated by subtracting glucose values of samples that had received amyloglucosidase (i.e. that had degraded their glycogen stores) to samples that had not. Intracellular levels of glycogen, which is the main source of glucose storage in the brain, were analyzed in primary astrocytes after treatment with compounds of interest (10 μM, 3 h) (FIG. 5B), and compound GP-0157 (0.1, 1, 10 μM, 3 h) (FIG. 18).

Another test concerns astrocytes. Description: Intracellular glycogen quantification. It counts as cell-based, mouse. As to conditions: CDC54K hits; 10 μM, 3 h.
Test [1] deals with cerebral extracellular lactate. Description: In vivo pharmacodynamics - lactate biosensors. Set-up: species or system mouse. As to conditions: 100 mg/kg per os; AUC ratio vs vehicle. Here is the method:
Extracellular levels of lactate were monitored in vivo using lactate biosensors (Pinnacle Technology), according to the manufacturer's instructions. Cannulae were surgically implanted in mice cerebral motor cortex areas M1/M2 (coordinates: +1.94 mm (to bregma), lateral −1.4 mm (to mideline), ventral −1.0 mm (to dura)) 5-7 days before administration of the compounds. Drugs were administered per os as previously described, and cerebral levels of extracellular lactate were dynamically recorded for 6 hours. Mice were administered vehicle alone first, followed 3 hours later by vehicle or drug (10 or 100 mg/kg). Area Under the Curve (AUC) quantifying the fluctuations of extracellular lactate concentrations for each of the compound tested was calculated using Graphad Prism and the ratio of AUC after drug over Vehicle administration was calculated. Groups of 8 male mice were used for each condition.
To measure biological effect of lead molecules in vivo in the brain, lactate levels were quantified after administration of the drug by using lactate biosensors implanted in the cortex of freely moving mice.

Molecules are shown by their SMILES.

Turning to `Cc1ccccc1NC(=O)C1CCCN(c2ncnc3oc(C)c(C)c23)C1` (stereo not shown) [F228-0422], the “Mobilization of intracellular glycogen” value with primary astrocytes is “significantly enhance”.
For the compound `COc1ccccc1[N+]1=C2CCCCCN2C(O)(c2ccc(C)cc2)C1` (stereo not shown) [K404-0834], in the test with primary astrocytes, the “Mobilization of intracellular glycogen” value is recorded as “significantly enhance”.
For `CCc1nc(-c2csc(S(=O)(=O)NCc3ccc4c(c3)OCO4)c2)no1` [L287-0468], the “Mobilization of intracellular glycogen” value in the test with primary astrocytes is on record as “significantly enhance”.
Take `CCn1nccc1-c1csc(S(=O)(=O)Nc2ccc(Cl)cc2F)c1` [L924-1031]: the “Mobilization of intracellular glycogen” value with primary astrocytes is given as “significantly enhance”.
With `CC(=O)N1CCc2sc(S(=O)(=O)N3CCN(c4ccccc4C)CC3)cc2C1` [P025-0159], the “Mobilization of intracellular glycogen” value in the test with primary astrocytes is on record as “significantly enhance”. Moreover, the “Glycogen (statistical significance of glycogen degradation)” value in the test on astrocytes is on record as “ns”. Further, the Cerebral lactate result in test [1] was “Significant increase”.
As for `COc1ccc(Nc2nc(N3CCOCC3)c3ccccc3n2)cc1.Cl` [T0508-5190], the “Mobilization of intracellular glycogen” value in the test on primary astrocytes is “significantly enhance”.
In the case of `c1ccc2c(c1)CCN(c1ncnc3sccc13)C2` [T0517-8250], in the test on primary astrocytes, the “Mobilization of intracellular glycogen” value was “significantly enhance”. Further, in the test with astrocytes, the “Glycogen (statistical significance of glycogen degradation)” value was “ns”.
Take `N#Cc1ccc(C(=O)N2CCC(Nc3ncnc4c3CCC4)C2)cc1` (stereo not shown) [T636-2387]: the “Mobilization of intracellular glycogen” value with primary astrocytes was “significantly enhance”. For the same compound, the “Glycogen (statistical significance of glycogen degradation)” value with astrocytes is on record as “ns”. For the same compound, in test [1], the Cerebral lactate result was “Significant increase”.
As to `COc1cc(C)c(Cl)cc1S(=O)(=O)NCc1ccncc1` [T5580243], the “Glycogen (statistical significance of glycogen degradation)” value in the test with astrocytes is given as “ns”. Moreover, the Cerebral lactate entry in test [1] is reported as “Significant increase”.
Turning to `O=C1CCCN1c1ccc(S(=O)(=O)Nc2cccc(/C=C/c3ccccn3)c2)cc1` [T5644989], in the test with primary astrocytes, the “Mobilization of intracellular glycogen” value is “significantly enhance”.
With `O=S(=O)(Nc1cc(F)cc(F)c1)c1ccc2ccccc2c1` [T5884038], in the test on primary astrocytes, the “Mobilization of intracellular glycogen” value is listed as “significantly enhance”.
For the compound `Cc1nc2ccc(NS(=O)(=O)c3cccc(F)c3)cc2s1` [T6937001], in the test with primary astrocytes, the “Mobilization of intracellular glycogen” value was “significantly enhance”. Also, the “Glycogen (statistical significance of glycogen degradation)” value with astrocytes is “ns”.

(Values after patent US12274703B2, “Compositions and methods of treatment for neurological disorders comprising a dementia” (Gliapharm SA, priority 2017, dated 2025).)
